Measured values from paper PMC4620497 (Scientific Reports, 2015).

Experiments:
[1] = biological target: T1, RSK3(Kin.Dom.1-N-terminal) (Homo sapiens, UniProt Q15349); experiment: KINOMEscan panel screen; assay type: binding; details: read-out: Percent Control(%)
T1 construct: RSK3(Kin.Dom.1-N-terminal); purchased DiscoveRx KINOMEscan (Ambit Biosciences)

[2] = biological target: T2, VRK2 (Homo sapiens, UniProt Q86Y07); experiment: KINOMEscan panel screen; assay type: binding; details: read-out: Percent Control(%)
T2 construct: purchased DiscoveRx KINOMEscan (Ambit Biosciences)

[3] = biological target: T3, ABL1(Y253F)-phosphorylated (Homo sapiens, UniProt P00519, Y253F); experiment: KINOMEscan panel screen; assay type: binding; details: read-out: Percent Control(%)
T3 construct: purchased DiscoveRx KINOMEscan (Ambit Biosciences)

[4] = biological target: T4, KIT (Homo sapiens, UniProt P10721); experiment: KINOMEscan kinase binding assay (Kd)
T4 construct: DNA tag (qPCR read-out); purchased Ambit Biosciences (KINOMEscan service)

[5] = biological target: T5, CDKL2 (Homo sapiens, UniProt Q92772); experiment: KINOMEscan panel screen; assay type: binding; details: read-out: Percent Control(%)
T5 construct: purchased DiscoveRx KINOMEscan (Ambit Biosciences)

[6] = biological target: T6, PIK3CB (Homo sapiens, UniProt P42338); experiment: KINOMEscan panel screen; assay type: binding; details: read-out: Percent Control(%)
T6 construct: purchased DiscoveRx KINOMEscan (Ambit Biosciences)

[7] = biological target: T7, CAMK1 (Homo sapiens, UniProt Q14012); experiment: KINOMEscan panel screen; assay type: binding; details: read-out: Percent Control(%)
T7 construct: purchased DiscoveRx KINOMEscan (Ambit Biosciences)

[8] = biological target: T8, ERK2 (Homo sapiens, UniProt P28482); experiment: KINOMEscan panel screen; assay type: binding; details: read-out: Percent Control(%)
T8 construct: purchased DiscoveRx KINOMEscan (Ambit Biosciences)

[9] = biological target: T9, MST1 (Homo sapiens, UniProt Q13043); experiment: KINOMEscan panel screen; assay type: binding; details: read-out: Percent Control(%)
T9 construct: purchased DiscoveRx KINOMEscan (Ambit Biosciences)

[10] = biological target: T10, DAPK3 (Homo sapiens, UniProt O43293); experiment: KINOMEscan panel screen; assay type: binding; details: read-out: Percent Control(%)
T10 construct: purchased DiscoveRx KINOMEscan (Ambit Biosciences)

[11] = biological target: T11, PRKR (Homo sapiens, UniProt P19525); experiment: KINOMEscan panel screen; assay type: binding; details: read-out: Percent Control(%)
T11 construct: purchased DiscoveRx KINOMEscan (Ambit Biosciences)

[12] = biological target: T12, CDK3 (Homo sapiens, UniProt Q00526); experiment: KINOMEscan panel screen; assay type: binding; details: read-out: Percent Control(%)
T12 construct: purchased DiscoveRx KINOMEscan (Ambit Biosciences)

[13] = biological target: T13, INSRR (Homo sapiens, UniProt P14616); experiment: KINOMEscan panel screen; assay type: binding; details: read-out: Percent Control(%)
T13 construct: purchased DiscoveRx KINOMEscan (Ambit Biosciences)

[14] = biological target: T14, ABL1(M351T)-phosphorylated (Homo sapiens, UniProt P00519, M351T); experiment: KINOMEscan panel screen; assay type: binding; details: read-out: Percent Control(%)
T14 construct: purchased DiscoveRx KINOMEscan (Ambit Biosciences)

[15] = biological target: T15, RSK1(Kin.Dom.1-N-terminal) (Homo sapiens, UniProt Q15418); experiment: KINOMEscan panel screen; assay type: binding; details: read-out: Percent Control(%)
T15 construct: RSK1(Kin.Dom.1-N-terminal); purchased DiscoveRx KINOMEscan (Ambit Biosciences)

[16] = biological target: FLT3-ITD (Homo sapiens, UniProt P36888, ITD); experiment: biochemical; assay type: binding
[17] = biological target: T16, FLT3(K663Q) (Homo sapiens, UniProt P36888, K663Q); experiment: KINOMEscan panel screen; assay type: binding; details: read-out: Percent Control(%)
T16 construct: purchased DiscoveRx KINOMEscan (Ambit Biosciences)

[18] = biological target: T17, RET(V804M) (Homo sapiens, UniProt P07949, V804M); experiment: KINOMEscan panel screen; assay type: binding; details: read-out: Percent Control(%)
T17 construct: purchased DiscoveRx KINOMEscan (Ambit Biosciences)

[19] = biological target: T18, CLK3 (Homo sapiens, UniProt P49761); experiment: KINOMEscan panel screen; assay type: binding; details: read-out: Percent Control(%)
T18 construct: purchased DiscoveRx KINOMEscan (Ambit Biosciences)

[20] = biological target: T19, CAMK2D (Homo sapiens, UniProt Q13557); experiment: KINOMEscan panel screen; assay type: binding; details: read-out: Percent Control(%)
T19 construct: purchased DiscoveRx KINOMEscan (Ambit Biosciences)

[21] = biological target: T20, ERBB4 (Homo sapiens, UniProt Q15303); experiment: KINOMEscan panel screen; assay type: binding; details: read-out: Percent Control(%)
T20 construct: purchased DiscoveRx KINOMEscan (Ambit Biosciences)

[22] = biological target: T21, KIT(V559D) (Homo sapiens, UniProt P10721, V559D); experiment: KINOMEscan panel screen; assay type: binding; details: read-out: Percent Control(%)
T21 construct: purchased DiscoveRx KINOMEscan (Ambit Biosciences)

[23] = biological target: T22, PIK3CA(Q546K) (Homo sapiens, UniProt P42336, Q546K); experiment: KINOMEscan panel screen; assay type: binding; details: read-out: Percent Control(%)
T22 construct: purchased DiscoveRx KINOMEscan (Ambit Biosciences)

[24] = biological target: T23, MTOR (Homo sapiens, UniProt P42345); experiment: KINOMEscan panel screen; assay type: binding; details: read-out: Percent Control(%)
T23 construct: purchased DiscoveRx KINOMEscan (Ambit Biosciences)

[25] = biological target: T24, PCTK3 (Homo sapiens, UniProt Q07002); experiment: KINOMEscan panel screen; assay type: binding; details: read-out: Percent Control(%)
T24 construct: purchased DiscoveRx KINOMEscan (Ambit Biosciences)

[26] = test system: THP-1; experiment: MTT cell viability assay; details: Homo sapiens, THP-1, 72 h
[27] = biological target: T25, CSNK2A1 (Homo sapiens, UniProt P68400); experiment: KINOMEscan panel screen; assay type: binding; details: read-out: Percent Control(%)
T25 construct: purchased DiscoveRx KINOMEscan (Ambit Biosciences)

[28] = test system: normal PBMCs; experiment: CellTiterGlo viability assay, normal PBMCs; assay type: cell-based, human; details: 72 h
Source text: The patients’ information is listed in Supplementary Table S5. For comparison, three normal PB samples were also collected (sample #7, #8, #9). Peripheral blood mononuclear cells (PBMCs) were isolated from each sample in the following assays.
Methods used in this study were approved by the Ethics Committee of the West China Hospital. Informed consent for the use of human AML and normal peripheral blood (PB) samples for the present study was obtained from all patients according to the Declaration of Helsinki.
Effects of compounds on the PBMC viability were examined using CellTiterGlo (Promega) assays. […] The signal from the viable cells was assessed according to the manufacturer’s protocol.

[29] = biological target: ROCK1 (Homo sapiens, UniProt Q13464); experiment: KINOMEscan kinase binding assay (Kd)
[30] = biological target: T26, WEE1 (Homo sapiens, UniProt P30291); experiment: KINOMEscan panel screen; assay type: binding; details: read-out: Percent Control(%)
T26 construct: purchased DiscoveRx KINOMEscan (Ambit Biosciences)

[31] = biological target: FLT3-D835H (Homo sapiens, UniProt P36888, D835H); experiment: KINOMEscan kinase binding assay (Kd); design: purchased Ambit Biosciences (KINOMEscan)
[32] = test system: SW620; experiment: MTT cell viability assay; details: Homo sapiens, SW-620, 72 h
[33] = biological target: T27, FAK (Homo sapiens, UniProt Q05397); experiment: KINOMEscan panel screen; assay type: binding; details: read-out: Percent Control(%)
T27 construct: purchased DiscoveRx KINOMEscan (Ambit Biosciences)

[34] = biological target: T28, HIPK2 (Homo sapiens, UniProt Q9H2X6); experiment: KINOMEscan panel screen; assay type: binding; details: read-out: Percent Control(%)
T28 construct: purchased DiscoveRx KINOMEscan (Ambit Biosciences)

[35] = biological target: T29, EPHA4 (Homo sapiens, UniProt P54764); experiment: KINOMEscan panel screen; assay type: binding; details: read-out: Percent Control(%)
T29 construct: purchased DiscoveRx KINOMEscan (Ambit Biosciences)

[36] = biological target: T30, TIE1 (Homo sapiens, UniProt P35590); experiment: KINOMEscan panel screen; assay type: binding; details: read-out: Percent Control(%)
T30 construct: purchased DiscoveRx KINOMEscan (Ambit Biosciences)

[37] = biological target: T31, TLK2 (Homo sapiens, UniProt Q86UE8); experiment: KINOMEscan panel screen; assay type: binding; details: read-out: Percent Control(%)
T31 construct: purchased DiscoveRx KINOMEscan (Ambit Biosciences)

T4 sequence (P10721 26-976): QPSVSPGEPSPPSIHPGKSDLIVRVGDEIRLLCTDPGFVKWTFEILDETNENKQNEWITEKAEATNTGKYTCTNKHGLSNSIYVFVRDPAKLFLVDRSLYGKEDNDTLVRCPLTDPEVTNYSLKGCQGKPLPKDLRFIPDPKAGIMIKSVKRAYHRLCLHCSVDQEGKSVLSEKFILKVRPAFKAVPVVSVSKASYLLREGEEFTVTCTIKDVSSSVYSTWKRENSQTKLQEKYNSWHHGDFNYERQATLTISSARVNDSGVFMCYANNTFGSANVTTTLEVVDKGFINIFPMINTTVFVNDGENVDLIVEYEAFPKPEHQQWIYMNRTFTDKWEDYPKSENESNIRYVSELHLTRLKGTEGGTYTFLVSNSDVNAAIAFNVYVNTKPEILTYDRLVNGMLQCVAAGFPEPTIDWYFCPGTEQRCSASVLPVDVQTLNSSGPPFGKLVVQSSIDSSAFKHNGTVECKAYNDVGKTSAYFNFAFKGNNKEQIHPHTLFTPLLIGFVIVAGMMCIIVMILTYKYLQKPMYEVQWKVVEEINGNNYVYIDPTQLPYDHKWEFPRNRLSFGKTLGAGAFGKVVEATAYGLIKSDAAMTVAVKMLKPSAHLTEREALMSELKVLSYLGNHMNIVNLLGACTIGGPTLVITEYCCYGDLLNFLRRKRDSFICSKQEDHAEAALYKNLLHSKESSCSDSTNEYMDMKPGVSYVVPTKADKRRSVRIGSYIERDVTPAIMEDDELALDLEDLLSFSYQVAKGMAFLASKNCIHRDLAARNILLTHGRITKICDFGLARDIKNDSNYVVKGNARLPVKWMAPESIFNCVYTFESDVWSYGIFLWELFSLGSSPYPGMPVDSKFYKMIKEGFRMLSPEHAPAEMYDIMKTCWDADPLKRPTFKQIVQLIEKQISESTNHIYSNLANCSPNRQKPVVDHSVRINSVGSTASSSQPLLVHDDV
T19 sequence (Q13557 whole entry): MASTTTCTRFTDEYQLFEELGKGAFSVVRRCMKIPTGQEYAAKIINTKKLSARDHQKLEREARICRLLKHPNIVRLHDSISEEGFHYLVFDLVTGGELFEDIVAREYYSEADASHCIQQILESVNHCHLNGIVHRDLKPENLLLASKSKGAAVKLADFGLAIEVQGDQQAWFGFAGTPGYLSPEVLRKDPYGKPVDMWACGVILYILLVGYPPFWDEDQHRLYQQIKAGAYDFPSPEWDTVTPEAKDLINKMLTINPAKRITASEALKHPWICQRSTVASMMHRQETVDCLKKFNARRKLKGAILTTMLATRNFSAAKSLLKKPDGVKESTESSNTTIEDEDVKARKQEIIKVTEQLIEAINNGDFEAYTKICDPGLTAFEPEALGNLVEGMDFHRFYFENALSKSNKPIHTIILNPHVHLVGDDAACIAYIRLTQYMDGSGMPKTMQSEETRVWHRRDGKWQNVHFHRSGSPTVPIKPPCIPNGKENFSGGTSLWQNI
T26 sequence (P30291 whole entry): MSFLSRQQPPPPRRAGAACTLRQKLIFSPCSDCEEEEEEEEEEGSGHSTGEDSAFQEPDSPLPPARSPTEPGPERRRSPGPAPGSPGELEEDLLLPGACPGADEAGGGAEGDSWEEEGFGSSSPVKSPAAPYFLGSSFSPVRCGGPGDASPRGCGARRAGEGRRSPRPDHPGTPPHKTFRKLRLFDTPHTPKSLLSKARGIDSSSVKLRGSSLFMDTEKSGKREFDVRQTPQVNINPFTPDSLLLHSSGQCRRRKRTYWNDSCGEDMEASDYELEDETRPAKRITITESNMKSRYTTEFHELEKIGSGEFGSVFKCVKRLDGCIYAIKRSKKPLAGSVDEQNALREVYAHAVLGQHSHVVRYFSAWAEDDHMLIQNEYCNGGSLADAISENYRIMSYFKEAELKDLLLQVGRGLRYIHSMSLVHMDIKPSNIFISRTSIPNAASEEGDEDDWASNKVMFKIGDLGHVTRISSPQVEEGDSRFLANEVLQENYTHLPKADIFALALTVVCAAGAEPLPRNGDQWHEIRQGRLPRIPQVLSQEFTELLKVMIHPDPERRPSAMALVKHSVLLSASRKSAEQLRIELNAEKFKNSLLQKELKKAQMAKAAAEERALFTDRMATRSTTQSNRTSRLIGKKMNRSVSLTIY
T17 sequence (P07949 29-1114 V804M): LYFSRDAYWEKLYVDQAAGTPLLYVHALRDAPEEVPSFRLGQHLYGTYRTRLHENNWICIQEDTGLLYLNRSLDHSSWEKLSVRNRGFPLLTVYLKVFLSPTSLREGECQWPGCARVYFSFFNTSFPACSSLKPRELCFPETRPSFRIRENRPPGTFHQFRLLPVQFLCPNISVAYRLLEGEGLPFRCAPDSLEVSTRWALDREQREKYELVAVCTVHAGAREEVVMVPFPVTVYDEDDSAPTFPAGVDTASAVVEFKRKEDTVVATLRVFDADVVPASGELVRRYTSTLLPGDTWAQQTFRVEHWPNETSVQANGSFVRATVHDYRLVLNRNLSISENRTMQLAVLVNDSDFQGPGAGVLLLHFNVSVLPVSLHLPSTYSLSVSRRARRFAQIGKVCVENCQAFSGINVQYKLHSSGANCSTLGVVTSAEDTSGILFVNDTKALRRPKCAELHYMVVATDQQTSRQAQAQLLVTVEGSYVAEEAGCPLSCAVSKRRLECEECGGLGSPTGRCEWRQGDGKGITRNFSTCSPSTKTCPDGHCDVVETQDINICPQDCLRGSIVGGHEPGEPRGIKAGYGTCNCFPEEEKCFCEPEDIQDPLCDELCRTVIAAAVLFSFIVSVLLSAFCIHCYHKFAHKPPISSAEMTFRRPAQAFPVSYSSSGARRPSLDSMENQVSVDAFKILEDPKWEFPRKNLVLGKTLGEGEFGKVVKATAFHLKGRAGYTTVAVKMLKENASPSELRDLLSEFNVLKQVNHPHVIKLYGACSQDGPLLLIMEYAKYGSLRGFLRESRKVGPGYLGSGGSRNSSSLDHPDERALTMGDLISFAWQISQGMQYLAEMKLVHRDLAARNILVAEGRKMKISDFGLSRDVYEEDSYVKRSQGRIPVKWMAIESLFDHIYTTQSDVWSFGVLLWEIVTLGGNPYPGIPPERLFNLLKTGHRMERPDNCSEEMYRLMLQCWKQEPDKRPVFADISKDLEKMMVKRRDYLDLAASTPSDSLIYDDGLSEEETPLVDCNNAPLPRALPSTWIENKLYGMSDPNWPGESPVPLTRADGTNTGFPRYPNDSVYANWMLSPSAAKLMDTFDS
T25 sequence (P68400 whole entry): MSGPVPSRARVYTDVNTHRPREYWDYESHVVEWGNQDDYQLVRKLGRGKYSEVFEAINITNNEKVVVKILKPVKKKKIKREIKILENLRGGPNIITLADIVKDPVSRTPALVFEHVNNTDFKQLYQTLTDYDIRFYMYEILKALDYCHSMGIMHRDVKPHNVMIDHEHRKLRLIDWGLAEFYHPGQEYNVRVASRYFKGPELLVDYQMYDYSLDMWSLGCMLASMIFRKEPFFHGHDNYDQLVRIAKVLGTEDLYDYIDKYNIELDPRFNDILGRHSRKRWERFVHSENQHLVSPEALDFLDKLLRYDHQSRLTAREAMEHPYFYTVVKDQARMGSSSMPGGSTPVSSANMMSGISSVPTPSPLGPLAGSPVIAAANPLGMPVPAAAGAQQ
T30 sequence (P35590 22-1138): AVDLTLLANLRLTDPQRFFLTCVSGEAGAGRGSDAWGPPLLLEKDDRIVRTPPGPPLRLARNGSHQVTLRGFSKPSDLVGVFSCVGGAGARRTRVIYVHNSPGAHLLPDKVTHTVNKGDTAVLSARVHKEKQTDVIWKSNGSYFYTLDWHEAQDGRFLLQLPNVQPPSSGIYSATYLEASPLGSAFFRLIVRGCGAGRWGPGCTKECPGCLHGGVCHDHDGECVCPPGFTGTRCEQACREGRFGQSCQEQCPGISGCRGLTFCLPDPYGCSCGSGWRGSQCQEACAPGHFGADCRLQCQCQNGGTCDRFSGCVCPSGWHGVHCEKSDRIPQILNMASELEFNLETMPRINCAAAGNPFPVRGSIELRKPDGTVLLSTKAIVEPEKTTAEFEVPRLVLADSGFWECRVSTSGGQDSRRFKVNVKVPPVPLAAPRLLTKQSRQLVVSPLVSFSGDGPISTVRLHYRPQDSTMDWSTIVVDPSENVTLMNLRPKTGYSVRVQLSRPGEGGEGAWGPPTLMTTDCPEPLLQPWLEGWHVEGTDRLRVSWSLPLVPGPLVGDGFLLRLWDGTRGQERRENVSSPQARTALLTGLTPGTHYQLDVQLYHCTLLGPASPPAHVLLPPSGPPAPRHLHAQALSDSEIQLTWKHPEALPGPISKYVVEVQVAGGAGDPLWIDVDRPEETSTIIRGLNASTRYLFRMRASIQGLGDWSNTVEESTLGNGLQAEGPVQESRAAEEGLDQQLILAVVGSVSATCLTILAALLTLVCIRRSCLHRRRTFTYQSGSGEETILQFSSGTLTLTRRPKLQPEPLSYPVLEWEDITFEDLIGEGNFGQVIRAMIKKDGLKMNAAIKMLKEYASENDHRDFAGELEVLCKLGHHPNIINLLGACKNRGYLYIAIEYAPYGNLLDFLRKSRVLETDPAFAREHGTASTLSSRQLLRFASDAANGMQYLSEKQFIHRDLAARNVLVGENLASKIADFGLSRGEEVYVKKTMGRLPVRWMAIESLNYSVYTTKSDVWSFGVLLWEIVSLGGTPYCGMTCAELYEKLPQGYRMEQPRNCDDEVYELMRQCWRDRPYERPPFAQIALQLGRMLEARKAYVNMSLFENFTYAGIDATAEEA
T7 sequence (Q14012 whole entry): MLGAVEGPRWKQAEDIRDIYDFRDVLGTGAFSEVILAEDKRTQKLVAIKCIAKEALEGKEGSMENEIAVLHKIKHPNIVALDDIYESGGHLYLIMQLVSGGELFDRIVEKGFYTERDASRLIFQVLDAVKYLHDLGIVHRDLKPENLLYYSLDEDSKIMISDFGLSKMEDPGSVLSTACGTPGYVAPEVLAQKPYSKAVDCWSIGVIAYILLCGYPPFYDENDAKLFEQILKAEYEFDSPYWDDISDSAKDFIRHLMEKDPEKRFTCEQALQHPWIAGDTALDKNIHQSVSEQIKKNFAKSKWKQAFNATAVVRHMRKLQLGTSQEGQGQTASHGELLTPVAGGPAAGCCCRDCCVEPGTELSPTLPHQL

With `CC(C)(C)c1cc(NC(=O)Nc2ccc(Oc3ncnc4[nH]ncc34)c(F)c2)no1` [SKLB-677, 1-(4-(1H-pyrazolo[3,4-d]pyrimidin-4-yloxy)-3-fluorophenyl)-3-(5-tert-butylisoxazol-3-yl)urea] the remaining binding at 10 µM [1] was 41%, the remaining binding at 10 µM [2] was 100% and the remaining binding at 10 µM [3] was 10%. It also gave a Kd [4] of 0.0031 µM, a remaining binding at 10 µM [5] of 1.7% and a remaining binding at 10 µM [6] of 100%. The remaining binding at 10 µM [7] was 21%, the remaining binding at 10 µM [8] was 100% and the remaining binding at 10 µM [9] was 28%. For the same compound, the remaining binding at 10 µM [10] was 71%, the remaining binding at 10 µM [11] was 57% and the remaining binding at 10 µM [12] was 0.2%. It also gave a remaining binding at 10 µM [13] of 42%, a remaining binding at 10 µM [14] of 5.6% and a remaining binding at 10 µM [15] of 100%. It also gave a Kd [16] of 0.0013 µM, a remaining binding at 10 µM [17] of 1.8% and a remaining binding at 10 µM [18] of 1.9%. For the same compound, the remaining binding at 10 µM [19] was 52%, the remaining binding at 10 µM [20] was 100% and the remaining binding at 10 µM [21] was 81%. It also gave a remaining binding at 10 µM [22] of 0%, a remaining binding at 10 µM [23] of 100% and a remaining binding at 10 µM [24] of 100%. The remaining binding at 10 µM [25] was 0.05%, the IC50 [26] was greater than 10 µM and the remaining binding at 10 µM [27] was 100%. The IC50 ([28]; Homo sapiens, PBMC, sample #7, normal PBMCs) was greater than 10 µM, the IC50 ([28]; sample #8, normal PBMCs) was greater than 10 µM and the IC50 ([28]; sample #9, normal PBMCs) was greater than 10 µM. It also gave a Kd [29] greater than 10 µM, a remaining binding at 10 µM [30] of 64% and a Kd [31] of 0.00074 µM. It also gave an IC50 [32] greater than 10 µM, a remaining binding at 10 µM [33] of 84% and a remaining binding at 10 µM [34] of 4.4%. It also gave a remaining binding at 10 µM [35] of 4.8%, a remaining binding at 10 µM [36] of 8.7% and a remaining binding at 10 µM [37] of 64%.
